Data published in US20090105237A1, “Cooling compounds” (priority 2005, published 2009).

Key:
Assay type in all cases: in vivo
[1] = system: panelists; assay: Panel tasting of solutions of cooling compounds: concentration with cooling intensity similar or slightly higher than menthol at 2 ppm; settings: solution with cooling intensity similar or slightly higher than a solution of menthol at 2 ppm; small group of panelists
[2] = system: mouth; assay: Application in chewing gum: gum stick chewed by a panelist for 15 minutes and spit out
Method: All the ingredients are mixed in the prewarmed gum base. The mixture is spread in thick films, cooled down and cut in sticks. A gum stick is chewed by a panelist for 15 minutes and spit out. […] When spit out, the cooling sensation becomes intense and lasts for several hours

[3] = system: mouth; assay: Application in toothpaste: panelist's teeth brushed with toothgel, mouth rinsed with water
Description: The chemicals are mixed in the toothgel, a piece of toothgel was put on a toothbrush and a panelist's teeth were brushed. The mouth was rinsed with water and the water was spit out. […] The cooling perception lasted for several hours.

SMILES | Concentration [1] | also measured
CC1CCC(C(C)C)C(C(=O)Nc2ccc(C(N)=O)cc2)C1 (stereo not drawn) [Example 1, N-(4-carboxamidophenyl) p-menthanecarboxamide] | 0.15 ppm | cooling sensation when spit out ([2]; chewing gum with 0.100 g compound per about 100 g, with peppermint oil, after 15 minutes of chewing): intense; cooling sensation when chewed ([2]; chewing gum with 0.100 g compound per about 100 g, with peppermint oil, chewed 15 minutes, all areas of the mouth): agreeable cooling sensation; duration of cooling sensation ([2]; chewing gum, after it is spit out): several hours
COCCNC(=O)c1ccc(NC(=O)C2CC(C)CCC2C(C)C)cc1 (stereo not drawn) [Example 4, 4-[p-menthanecarbonyl-amino]-N-(2-methoxy-ethyl)-benzamide] | 0.25 ppm | 
CC1CCC(C(C)C)C(C(=O)Nc2ccccc2C(N)=O)C1 (stereo not drawn) [Example 3, N-(2-carboxamidophenyl) p-menthanecarboxamide] | 0.5 ppm | cooling sensation after brushing ([3]; 0.500 g of a 5% gel in peppermint oil in 99.500 g opaque toothgel, after rinsing, all areas of the mouth): intense cooling sensation; duration of cooling perception ([3]; toothgel, after brushing and rinsing): several hours
CC1CCC(C(C)C)C(O)C1 (stereo not drawn) [Example 1-Menthol, 1-Menthol, reference compound] | 2.0 ppm | 
CCNC(=O)C1CC(C)CCC1C(C)C (stereo not drawn) [N-ethyl p-menthanecarboxamide (WS-3), N-ethyl p-menthanecarboxamide, reference compound] | 1.5 ppm | 
CC1CCC(C(C)C)C(C(=O)Nc2ccc(C(=O)N3CCN(C)CC3)cc2)C1 (stereo not drawn) [Example 5, N-(4-(4-methylpiperazine-1-carbonyl)phenyl) p-menthanecarboxamide] | 0.4 ppm | 
CC1CCC(C(C)C)C(C(=O)Nc2cccc(C(N)=O)c2)C1 (stereo not drawn) [Example 2, N-(3-carboxamidophenyl) p-menthanecarboxamide] | 0.2 ppm | 
